Data from the supplement of paper PMC4862054.
Several values for one entry are separate records, joined by “and”; a condition that tells them apart may be missing. Equal entries are not always repeated.

What was measured:
HDQ-P1 [1] = experiment: normalised viability (% of control), CellTiter-Blue; higher = more viable cells (about 100 = DMSO control); conditions: incubation time: 72 h
Method: (§1)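 DSRT, CellTiter-Blue viability, 72 h incubation. Signal is normalised to DMSO and benzethonium chloride controls. Value is the normalised response at dose 7.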

CAL-85-1 [2] = experiment: as above; conditions: incubation time: 72 h
Method: as §1

MCF-10A = experiment: drug sensitivity score (DSS), CellTiter-Glo (DSS (AUC-based score)); higher = stronger drug effect (viability inhibition or cytotoxicity); extreme values may be limits of the assay; conditions: incubation time: 72 h
Outline: (§2)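 Breast cancer cells were seeded into 384-well plates containing compound at 5 concentrations in 10-fold steps over a compound-specific 10,000-fold range and incubated 72 h. After CellTox Green and CellTiter-Glo readings, each plate was normalised to 0.1 % DMSO and a positive kill control. The drug sensitivity score rests on the area under the fitted dose-response curve.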

HDQ-P1 [3] = experiment: as above; conditions: incubation time: 72 h
Outline: as §2

BT-549 [4] = experiment: as above; conditions: incubation time: 72 h
Outline: as §2

Hs578T [5] = experiment: as above; conditions: incubation time: 72 h
Outline: as §2

CAL-85-1 [6] = experiment: as above; conditions: incubation time: 72 h
Outline: as §2

MDA-MB-436 [7] = experiment: as above; conditions: incubation time: 72 h
Outline: as §2

HCC1599 [8] = experiment: as above; conditions: incubation time: 72 h
Outline: as §2

DU-4475 [9] = experiment: as above; conditions: incubation time: 72 h
Outline: as §2

HCC1143 [10] = experiment: as above; conditions: incubation time: 72 h
Outline: as §2

HCC1937 = experiment: normalised viability (% of control), CellTiter-Blue; higher = more viable cells (about 100 = DMSO control); conditions: 100 nM; incubation time: 72 h
Method: (§3)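 DSRT, CellTiter-Blue viability, 72 h incubation. Signal is normalised to DMSO and benzethonium chloride controls. Value is the normalised response at dose 3.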

CAL-51 = experiment: as above; conditions: 10 nM; incubation time: 72 h
Method: as §3

MFM-223 = experiment: as above; conditions: 100 nM; incubation time: 72 h
Method: as §3

HDQ-P1 [11] = experiment: as above; conditions: 10 nM; incubation time: 72 h
Method: as §3

CAL-148 = experiment: as above; conditions: 10 nM; incubation time: 72 h
Method: as §3

BT-549 [12] = experiment: as above; conditions: 100 nM; incubation time: 72 h
Method: as §3

Hs578T [13] = experiment: as above; conditions: 100 nM; incubation time: 72 h
Method: as §3

CAL-120 = experiment: as above; conditions: 100 nM; incubation time: 72 h
Method: as §3

CAL-85-1 [14] = experiment: as above; conditions: 10 nM; incubation time: 72 h
Method: as §3

BT-474 = experiment: as above; conditions: 100 nM; incubation time: 72 h
Method: as §3

MDA-MB-231 = experiment: as above; conditions: 100 nM; incubation time: 72 h
Method: as §3

MDA-MB-468 = experiment: as above; conditions: 100 nM; incubation time: 72 h
Method: as §3

MDA-MB-436 [15] = experiment: as above; conditions: 100 nM; incubation time: 72 h
Method: as §3

HCC1599 [16] = experiment: as above; conditions: 100 nM; incubation time: 72 h
Method: as §3

MDA-MB-453 = experiment: as above; conditions: 10 nM; incubation time: 72 h
Method: as §3

DU-4475 [17] = experiment: as above; conditions: 10 nM; incubation time: 72 h
Method: as §3

HCC1143 [18] = experiment: as above; conditions: 100 nM; incubation time: 72 h
Method: as §3

SK-BR-3 = experiment: as above; conditions: 100 nM; incubation time: 72 h
Method: as §3

Compound	normalised viability (HDQ-P1 [1])	normalised viability (CAL-85-1 [2])	drug sensitivity score (MCF-10A)	drug sensitivity score (HDQ-P1 [3])	drug sensitivity score (BT-549 [4])	drug sensitivity score (Hs578T [5])	drug sensitivity score (CAL-85-1 [6])	drug sensitivity score (MDA-MB-436 [7])	drug sensitivity score (HCC1599 [8])	drug sensitivity score (DU-4475 [9])	drug sensitivity score (HCC1143 [10])	other results
CC1=C2C[C@H]3[C@@H](CC=C4C[C@@H](O)CC[C@@]43C)[C@@H]2CC[C@]12O[C@@H]1C[C@H](C)CN[C@H]1[C@H]2C [Cyclopamine] (1000 nM)	127%	92.2%										
CC(=O)N(O)CCCCCNC(=O)CCC(=O)N(O)CCCCCNC(=O)CCC(=O)N(O)CCCCCN [Deferoxamine]			0	2.75	5.68	2.31	0	4.73	1.95	5.21	3.11	
CC(=O)O[C@@]12CO[C@@H]1C[C@H](O)[C@@]1(C)C(=O)[C@H](O)C3=C(C)[C@@H](OC(=O)[C@H](O)[C@@H](NC(=O)OC(C)(C)C)c4ccccc4)C[C@@](O)([C@@H](OC(=O)c4ccccc4)[C@H]21)C3(C)C [Docetaxel] (100 nM)	34.2% and 38%	32.9% and 29.5%										
C[C@]1(O)C[C@@H](c2nc(-c3ccc4ccc(-c5ccccc5)nc4c3)c3c(N)nccn32)C1 [Linsitinib]			12.5	5.33	0	0	2.88	0.173	2.37	0	1.82	
CC1(C)CNc2cc(NC(=O)c3cccnc3NCc3ccncc3)ccc21 [Motesanib] (1000 nM)	78.1%	79.8%										
C[C@]1(O)C[C@@H](c2nc(-c3ccc4ccc(-c5ccccc5)nc4c3)c3c(N)nccn32)C1 [OSI-906]												normalised viability (HCC1937): 92.5%; normalised viability (CAL-51): 97.4%; normalised viability (MFM-223): 95.5%; normalised viability (HDQ-P1 [11]): 76%; normalised viability (CAL-148): 101%; normalised viability (BT-549 [12]): 84.4%; normalised viability (Hs578T [13]): 74.8%; normalised viability (CAL-120): 90%; normalised viability (CAL-85-1 [14]): 104%; normalised viability (BT-474): 110%; normalised viability (MDA-MB-231): 83.8%; normalised viability (MDA-MB-468): 98.6%; normalised viability (MDA-MB-436 [15]): 94.5%; normalised viability (HCC1599 [16]): 94.9%; normalised viability (MDA-MB-453): 86.6%; normalised viability (DU-4475 [17]): 94.1%; normalised viability (HCC1143 [18]): 105%; normalised viability (SK-BR-3): 78.3%
Cc1ccc([N+](=O)[O-])cc1S(=O)(=O)N(C)/N=C/c1cnc2ccc(Br)cn12 [PIK-75]			28.4	25.5	29	29	29	27.1	23.1	29.1	24	
CC(=O)c1c(C)c2cnc(Nc3ccc(N4CCNCC4)cn3)nc2n(C2CCCC2)c1=O [Palbociclib]			3.99	0	0	0.478	0	0	0	0	0	
CC[C@@H]1C(=O)OC[C@@H]1Cc1cncn1C [Pilocarpine] (4000 nM)	121%	89.5%										
COc1cc(F)c(F)c(Nc2ccc(I)cc2F)c1NS(=O)(=O)C1(C[C@H](O)CO)CC1 [RDEA119]												normalised viability (HCC1937): 87.7%; normalised viability (CAL-51): 91.2%; normalised viability (MFM-223): 85%; normalised viability (HDQ-P1 [11]): 74.8%; normalised viability (CAL-148): 93.6%; normalised viability (BT-549 [12]): 77.4%; normalised viability (Hs578T [13]): 76%; normalised viability (CAL-120): 93.7%; normalised viability (CAL-85-1 [14]): 97.3%; normalised viability (BT-474): 98.7%; normalised viability (MDA-MB-231): 45%; normalised viability (MDA-MB-468): 86.1%; normalised viability (MDA-MB-436 [15]): 90.4%; normalised viability (HCC1599 [16]): 87.4%; normalised viability (MDA-MB-453): 78.3%; normalised viability (DU-4475 [17]): 86%; normalised viability (HCC1143 [18]): 90.8%; normalised viability (SK-BR-3): 90.7%
COc1cc(F)c(F)c(Nc2ccc(I)cc2F)c1NS(=O)(=O)C1(C[C@H](O)CO)CC1 [Refametinib]			23.6	12.7	2.33	4.13	10.4	4.19	0	26.1	2.8	
CC(C)(C)c1cnc(CSc2cnc(NC(=O)C3CCNCC3)s2)o1 [SNS-032] (1000 nM)	12.6%	2.84%										
Cn1cnc2c(F)c(Nc3ccc(Br)cc3Cl)c(C(=O)NOCCO)cc21 [Selumetinib] (1000 nM)	75.2%	64.8%										
Nc1nc2[nH]cnc2c(=S)[nH]1 [Thioguanine] (1000 nM)	85.2%	79.2%										
